Measurements published in article PMC5054060, “Probing the nucleotide-binding activity of a redox sensor: two-component regulatory control in chloroplasts” (Photosynthesis Research, 2016).

Molecular target: T1, CSK_T (truncated Arabidopsis CSK, amino acids 301 to 611) (Arabidopsis thaliana, UniProt F4HVG8)
T1 sequence (F4HVG8 301-611): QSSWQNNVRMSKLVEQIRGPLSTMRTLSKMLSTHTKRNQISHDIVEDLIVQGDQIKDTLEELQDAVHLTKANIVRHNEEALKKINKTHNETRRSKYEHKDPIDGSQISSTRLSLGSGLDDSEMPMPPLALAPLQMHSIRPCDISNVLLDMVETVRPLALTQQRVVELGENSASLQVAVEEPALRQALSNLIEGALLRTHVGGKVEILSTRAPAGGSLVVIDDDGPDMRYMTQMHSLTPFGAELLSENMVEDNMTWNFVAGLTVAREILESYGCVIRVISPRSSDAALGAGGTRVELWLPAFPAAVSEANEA
Assay: displacement of TNP-ATP fluorescence, […] nm
Conditions: 10 mM NaCl, 10 mM Tris-HCl pH 8; 1 µM TNP-ATP; 2 µM protein (figure legend: 1 µM); competitive displacement, no metal added; read-out: Binding affinity / ATP (mm)

Kd: 4.97 mM
Structure (SMILES): Nc1ncnc2c1ncn2[C@@H]1O[C@H](COP(=O)(O)OP(=O)(O)OP(=O)(O)O)[C@@H](O)[C@H]1O [ATP]
